Here are results for 4 compounds from PMC8550792, “Evolution of kinase polypharmacology across HSP90 drug discovery” (Cell Chemical Biology, 2021).

Common to all, as to assay: biochemical
Holding throughout (type): biochemical

The target of assay [1] is T1, 382 unique human kinases (Homo sapiens, UniProt Q76MJ5).
T1 construct: purchased Reaction Biology (HotSpot contract assay)
The following applies: ERN2/IRE2, 10 uM; for remaining activity at 10 µM: read-out: % Enzyme Activity (relative to DMSO controls).

For assay [2], the target named is T2, 382 unique human kinases (Homo sapiens, UniProt P53778).
T2 construct: purchased Reaction Biology (HotSpot contract assay)
T2 sequence (P53778 1-367): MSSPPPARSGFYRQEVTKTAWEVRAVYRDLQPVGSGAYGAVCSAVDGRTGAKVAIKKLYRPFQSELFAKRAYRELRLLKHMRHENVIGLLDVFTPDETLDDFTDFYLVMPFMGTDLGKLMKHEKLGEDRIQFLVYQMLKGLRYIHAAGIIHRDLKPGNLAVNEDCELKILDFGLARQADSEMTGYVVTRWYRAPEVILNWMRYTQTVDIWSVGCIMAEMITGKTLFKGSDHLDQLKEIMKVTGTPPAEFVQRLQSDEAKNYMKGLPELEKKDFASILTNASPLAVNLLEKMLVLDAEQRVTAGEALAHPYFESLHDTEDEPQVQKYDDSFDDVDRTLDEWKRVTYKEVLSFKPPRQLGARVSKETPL
To be noted: P38g, compound at 10 uM, duplicate values; for remaining activity at 10 µM: read-out: % Enzyme Activity (relative to DMSO controls).

Assay [3] deals with T3, 382 unique human kinases (Homo sapiens, UniProt P08581, Y1230H).
T3 construct: purchased Reaction Biology (HotSpot contract assay)
The following applies: c-MET (Y1230H), 10 uM; for remaining activity at 10 µM: read-out: % Enzyme Activity (relative to DMSO controls).

The target in assay [4] is T4, 382 unique human kinases (Homo sapiens, UniProt Q02156).
T4 construct: purchased Reaction Biology (HotSpot contract assay)
T4 sequence (Q02156 1-737): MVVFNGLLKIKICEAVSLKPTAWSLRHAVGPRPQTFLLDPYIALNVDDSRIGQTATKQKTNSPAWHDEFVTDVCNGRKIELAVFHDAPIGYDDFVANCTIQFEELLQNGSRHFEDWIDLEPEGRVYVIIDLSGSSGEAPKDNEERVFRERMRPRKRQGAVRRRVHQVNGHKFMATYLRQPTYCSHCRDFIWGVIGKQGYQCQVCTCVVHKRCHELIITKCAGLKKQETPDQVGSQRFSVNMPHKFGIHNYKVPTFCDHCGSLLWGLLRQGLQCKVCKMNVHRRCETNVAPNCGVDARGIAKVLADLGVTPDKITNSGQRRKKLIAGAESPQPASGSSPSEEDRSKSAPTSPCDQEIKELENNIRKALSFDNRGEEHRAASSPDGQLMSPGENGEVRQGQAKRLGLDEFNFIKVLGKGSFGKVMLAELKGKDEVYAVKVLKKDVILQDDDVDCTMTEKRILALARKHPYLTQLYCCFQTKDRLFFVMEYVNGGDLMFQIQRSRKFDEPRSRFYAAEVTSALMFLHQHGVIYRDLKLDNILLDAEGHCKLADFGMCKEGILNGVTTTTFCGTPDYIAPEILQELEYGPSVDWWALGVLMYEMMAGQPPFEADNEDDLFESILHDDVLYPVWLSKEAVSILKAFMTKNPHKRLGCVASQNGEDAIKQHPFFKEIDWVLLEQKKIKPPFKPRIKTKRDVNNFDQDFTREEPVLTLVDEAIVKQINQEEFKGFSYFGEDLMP
To be noted: kinase PKCepsilon, compound 10 uM; for remaining activity at 10 µM: read-out: % Enzyme Activity (relative to DMSO controls).

Assay [5] concerns the target T5, 382 unique human kinases (Homo sapiens, UniProt P00533, D761Y).
T5 construct: purchased Reaction Biology (HotSpot contract assay)
To be noted: kinase EGFR (D761Y), compound 10 uM; for remaining activity at 10 µM: read-out: % Enzyme Activity (relative to DMSO controls).

For assay [6], the target named is T6, 382 unique human kinases (Homo sapiens, UniProt P00519, H396P).
T6 construct: purchased Reaction Biology (HotSpot contract assay)
To be noted: ABL1 (H396P), [ATP] 15 µM, compound 10 uM; for remaining activity at 10 µM: read-out: % Enzyme Activity (relative to DMSO controls).

The target of assay [7] is T7, 382 unique human kinases (Homo sapiens, UniProt O95835).
T7 construct: purchased Reaction Biology (HotSpot contract assay)
T7 sequence (O95835 1-1130): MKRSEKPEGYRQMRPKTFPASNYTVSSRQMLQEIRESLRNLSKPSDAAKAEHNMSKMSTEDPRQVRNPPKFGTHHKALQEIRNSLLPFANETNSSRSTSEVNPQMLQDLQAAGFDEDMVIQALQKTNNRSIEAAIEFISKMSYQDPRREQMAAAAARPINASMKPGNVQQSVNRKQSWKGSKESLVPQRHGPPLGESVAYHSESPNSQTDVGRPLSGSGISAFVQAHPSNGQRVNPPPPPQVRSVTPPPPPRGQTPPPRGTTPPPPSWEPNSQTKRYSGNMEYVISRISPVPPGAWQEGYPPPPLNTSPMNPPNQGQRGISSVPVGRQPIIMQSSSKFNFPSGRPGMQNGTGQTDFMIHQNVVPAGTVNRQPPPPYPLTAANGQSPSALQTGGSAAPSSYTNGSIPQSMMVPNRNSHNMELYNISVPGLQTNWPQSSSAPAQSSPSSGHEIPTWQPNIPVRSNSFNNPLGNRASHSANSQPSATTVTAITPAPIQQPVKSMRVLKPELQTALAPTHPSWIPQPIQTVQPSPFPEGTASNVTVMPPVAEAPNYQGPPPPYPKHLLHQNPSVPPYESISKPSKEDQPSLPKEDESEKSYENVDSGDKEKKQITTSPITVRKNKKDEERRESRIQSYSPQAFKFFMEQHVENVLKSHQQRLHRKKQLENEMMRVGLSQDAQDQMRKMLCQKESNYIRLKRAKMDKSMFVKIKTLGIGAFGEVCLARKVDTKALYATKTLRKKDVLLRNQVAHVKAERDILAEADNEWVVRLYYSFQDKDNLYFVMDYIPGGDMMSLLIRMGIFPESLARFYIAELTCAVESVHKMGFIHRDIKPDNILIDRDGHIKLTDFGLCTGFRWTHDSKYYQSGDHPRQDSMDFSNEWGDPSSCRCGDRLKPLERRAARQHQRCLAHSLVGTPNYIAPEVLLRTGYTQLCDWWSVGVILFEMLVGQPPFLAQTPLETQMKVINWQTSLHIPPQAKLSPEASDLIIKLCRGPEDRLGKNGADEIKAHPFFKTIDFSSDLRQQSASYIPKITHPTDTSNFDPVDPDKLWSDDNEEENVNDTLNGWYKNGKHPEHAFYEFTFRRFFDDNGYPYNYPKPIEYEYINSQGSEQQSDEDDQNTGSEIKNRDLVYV
The following applies: LATS1, 10 uM; for remaining activity at 10 µM: read-out: % Enzyme Activity (relative to DMSO controls).

Assay [8] concerns the target T8, 382 unique human kinases (Homo sapiens, UniProt Q13177).
T8 construct: purchased Reaction Biology (HotSpot contract assay)
The following applies: PAK2, 10 uM; for remaining activity at 10 µM: read-out: % Enzyme Activity (relative to DMSO controls).

Assay [9] concerns the target T9, 382 unique human kinases (Homo sapiens, UniProt O75716).
T9 construct: purchased Reaction Biology (HotSpot contract assay)
The following applies: STK16, [ATP] 5 µM, compound 10 uM; for remaining activity at 10 µM: read-out: % Enzyme Activity (relative to DMSO controls).

For assay [10], the target named is T10, 382 unique human kinases (Homo sapiens, UniProt P10721, D816V).
T10 construct: purchased Reaction Biology (HotSpot contract assay)
To be noted: c-Kit (D816V), [ATP] 10 µM, compound 10 uM; for remaining activity at 10 µM: read-out: % Enzyme Activity (relative to DMSO controls).

Structures are written as SMILES.

T1 sequence (Q76MJ5 35-926): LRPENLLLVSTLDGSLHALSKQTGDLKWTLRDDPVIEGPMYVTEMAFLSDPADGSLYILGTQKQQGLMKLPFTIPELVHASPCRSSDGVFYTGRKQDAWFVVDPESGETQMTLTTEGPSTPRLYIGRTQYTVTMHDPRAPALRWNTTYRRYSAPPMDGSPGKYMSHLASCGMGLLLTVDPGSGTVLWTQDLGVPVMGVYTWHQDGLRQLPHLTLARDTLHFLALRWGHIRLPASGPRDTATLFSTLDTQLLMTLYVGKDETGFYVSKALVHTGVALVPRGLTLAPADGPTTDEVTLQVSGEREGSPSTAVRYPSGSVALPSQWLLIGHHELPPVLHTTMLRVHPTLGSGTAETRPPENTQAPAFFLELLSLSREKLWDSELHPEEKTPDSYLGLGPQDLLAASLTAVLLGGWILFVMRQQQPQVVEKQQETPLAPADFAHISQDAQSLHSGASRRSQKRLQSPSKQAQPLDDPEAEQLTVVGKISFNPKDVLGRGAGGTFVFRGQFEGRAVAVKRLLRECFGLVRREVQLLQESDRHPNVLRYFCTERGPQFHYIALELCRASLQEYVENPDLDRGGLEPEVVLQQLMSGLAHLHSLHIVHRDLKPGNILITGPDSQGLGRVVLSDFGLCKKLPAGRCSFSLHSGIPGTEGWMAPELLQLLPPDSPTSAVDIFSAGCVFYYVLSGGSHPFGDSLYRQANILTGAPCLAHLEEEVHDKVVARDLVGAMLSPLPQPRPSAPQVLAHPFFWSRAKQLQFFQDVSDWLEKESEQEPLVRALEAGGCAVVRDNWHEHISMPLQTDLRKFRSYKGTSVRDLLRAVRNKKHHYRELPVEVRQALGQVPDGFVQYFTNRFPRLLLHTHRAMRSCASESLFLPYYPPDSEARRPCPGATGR
T10 sequence (P10721 26-976 D816V): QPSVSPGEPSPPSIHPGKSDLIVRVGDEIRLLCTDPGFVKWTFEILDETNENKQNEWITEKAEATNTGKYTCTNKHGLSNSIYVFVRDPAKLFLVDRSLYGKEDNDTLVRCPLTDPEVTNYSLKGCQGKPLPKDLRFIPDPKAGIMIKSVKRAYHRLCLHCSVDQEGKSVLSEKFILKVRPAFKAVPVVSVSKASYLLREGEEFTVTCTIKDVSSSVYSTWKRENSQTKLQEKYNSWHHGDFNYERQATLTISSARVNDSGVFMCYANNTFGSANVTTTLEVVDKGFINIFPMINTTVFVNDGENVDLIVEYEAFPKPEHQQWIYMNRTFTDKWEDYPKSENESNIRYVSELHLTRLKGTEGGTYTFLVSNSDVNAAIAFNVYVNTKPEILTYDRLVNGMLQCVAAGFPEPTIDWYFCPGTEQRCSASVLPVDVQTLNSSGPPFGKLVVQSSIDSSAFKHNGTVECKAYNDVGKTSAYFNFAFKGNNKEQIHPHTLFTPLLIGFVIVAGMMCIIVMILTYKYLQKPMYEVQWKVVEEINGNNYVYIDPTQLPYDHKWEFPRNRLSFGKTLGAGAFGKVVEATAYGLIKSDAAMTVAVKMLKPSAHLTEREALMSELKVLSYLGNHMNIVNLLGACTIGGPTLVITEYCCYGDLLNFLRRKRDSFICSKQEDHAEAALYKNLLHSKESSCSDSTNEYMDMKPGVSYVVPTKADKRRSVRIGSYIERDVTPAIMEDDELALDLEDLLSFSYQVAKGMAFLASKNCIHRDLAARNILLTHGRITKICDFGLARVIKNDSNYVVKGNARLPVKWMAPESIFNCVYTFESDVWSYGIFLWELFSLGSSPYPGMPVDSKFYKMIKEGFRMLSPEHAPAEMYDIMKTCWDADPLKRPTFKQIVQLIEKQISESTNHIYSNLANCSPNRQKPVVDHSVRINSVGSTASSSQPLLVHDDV
T8 sequence (Q13177 whole entry): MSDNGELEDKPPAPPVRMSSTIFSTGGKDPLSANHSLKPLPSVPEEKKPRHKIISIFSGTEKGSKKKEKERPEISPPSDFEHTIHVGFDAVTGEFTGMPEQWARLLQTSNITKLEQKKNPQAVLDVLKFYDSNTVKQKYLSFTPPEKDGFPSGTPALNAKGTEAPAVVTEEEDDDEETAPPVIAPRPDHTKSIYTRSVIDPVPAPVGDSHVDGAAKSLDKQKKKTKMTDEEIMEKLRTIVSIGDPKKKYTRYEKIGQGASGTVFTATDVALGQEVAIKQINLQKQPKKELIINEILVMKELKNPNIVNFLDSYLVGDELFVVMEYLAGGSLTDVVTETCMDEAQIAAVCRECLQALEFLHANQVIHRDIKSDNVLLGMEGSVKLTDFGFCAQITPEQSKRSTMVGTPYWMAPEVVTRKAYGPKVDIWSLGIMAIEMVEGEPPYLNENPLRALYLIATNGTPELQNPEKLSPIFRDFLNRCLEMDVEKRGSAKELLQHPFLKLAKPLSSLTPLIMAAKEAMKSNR
T9 sequence (O75716 whole entry): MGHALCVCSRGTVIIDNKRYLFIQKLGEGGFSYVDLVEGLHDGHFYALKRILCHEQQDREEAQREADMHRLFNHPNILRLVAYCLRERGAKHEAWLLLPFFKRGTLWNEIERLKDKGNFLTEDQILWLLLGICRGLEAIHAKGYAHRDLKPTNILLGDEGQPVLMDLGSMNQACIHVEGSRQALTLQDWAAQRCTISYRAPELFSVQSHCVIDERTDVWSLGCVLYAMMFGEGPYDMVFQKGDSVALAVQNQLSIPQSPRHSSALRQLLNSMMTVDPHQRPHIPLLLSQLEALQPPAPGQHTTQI

With `CC(C)c1cc(-c2n[nH]c(=O)n2-c2ccc3c(ccn3C)c2)c(O)cc1O` [Ganetespib (STA9090)], the remaining activity at 10 µM was 66.7% at 382 unique human kinases [1]; 119% at 382 unique human kinases [2]; 108% at 382 unique human kinases [3]; 87% on 382 unique human kinases [4]; 90% on 382 unique human kinases [5].
Regarding `CC(C)c1cc(-c2n[nH]c(=O)n2-c2ccc3c(ccn3C)c2)c(O)cc1O` [Ganetespib], the remaining activity at 10 µM at 382 unique human kinases [6] amounted to 2.43%; on 382 unique human kinases [7] it was 95.5%; at 382 unique human kinases [8] it was 99.6%; on 382 unique human kinases [9], 32.4%; on 382 unique human kinases [10] it was 30.4%.
Regarding `CCNC(=O)c1noc(-c2cc(C(C)C)c(O)cc2O)c1-c1ccc(CN2CCOCC2)cc1` [Luminespib (AUY-922)], the “% Enzyme Activity (relative to DMSO controls)” value at 382 unique human kinases [1] is 105.69%; on 382 unique human kinases [2], 104.66%; on 382 unique human kinases [3], 78.17%; on 382 unique human kinases [4], 103.78%; on 382 unique human kinases [5] it was 97.70%. Also, the remaining activity at 10 µM on 382 unique human kinases [1] came out at 108%; on 382 unique human kinases [2] it was 106%; at 382 unique human kinases [3] it was 79.7%; at 382 unique human kinases [4], 107%; on 382 unique human kinases [5], 98.1%.
Regarding `CCNC(=O)c1noc(-c2cc(C(C)C)c(O)cc2O)c1-c1ccc(CN2CCOCC2)cc1` [Luminespib], the “% Enzyme Activity (relative to DMSO controls)” value on 382 unique human kinases [6] amounted to 6.11%; at 382 unique human kinases [7], 98.44%; on 382 unique human kinases [8], 99.27%; on 382 unique human kinases [9], 98.01%; at 382 unique human kinases [10], 67.99%. The remaining activity at 10 µM at 382 unique human kinases [6] was 6.74%; at 382 unique human kinases [7] it was 98.6%; at 382 unique human kinases [8], 99.3%; at 382 unique human kinases [9], 98.4%; at 382 unique human kinases [10] it was 68.9%.
